Measurements reported in patent US20250263459A1, “STABILIZED PACAP PEPTIDE” (SENJU PHARMACEUTICAL CO., LTD., priority 2019, published 2025).
Starred links: 1 amine or outer side, 2 acyl side, 3 side chain; linkers in the order of their positions; H or OH if unused. Non-standard residues stand in square brackets, D forms with d. Residues, ends and D or L forms follow the SMILES beside them. *: point of attachment. Ala(1H-tetrazol-5-yl) = N[C@@H](Cc1nnn[nH]1)C(=O)O; X2 = O=C([C@H](Cc1noc(=O)[nH]1)N[*:1])[*:2]; X1 = O=C([C@@H](Cc1nnn[nH]1)N[*:1])[*:2]; X3 = O=C([C@H](CCc1nnn[nH]1)N[*:1])[*:2]; Isovaleryl = CC(C)CC(=O)*; Nle = CCCC[C@H](N)C(=O)O; Propionyl = CCC(=O)*

How the values were obtained:
[1] = 100 μM peptide, Tris buffer pH 7.0, 60° C.
Protocol: The solution was filtered with a Chromatdisk (product of Merck Millipore, Millex-GV, 0.22 μm). The filtrate was diluted to 100 μM with Tris buffer (pH 7.0) and dispensed into a tube (Protein LoBind Tube by Eppendorf Co.). The prepared peptide solutions were incubated for 1 week or 2 weeks in a 60° C. thermostatic bath to obtain stored samples. A simultaneously prepared sample among the peptide solutions that was not stored was used as a standard sample (initial sample). The standard sample and the stored samples were stored at −30° C. until sample analysis.
• Column: XSelect CSH C18 by Waters Co., 5 μm, 4.6×250 mm • Guard column: XSelect CSH C18 by Waters Co., 5 μm, 4.6×20 mm Guard Cartridge • Detection wavelength: 220 nm • Mobile phase A: 0.1% formic acid aqueous solution • Mobile phase B: 0.1% acetonitrile formate solution • Measuring time: 20 minutes • Measuring sample injection rate: 50 μL • Flow rate: 1.0 mL/min • Column temperature: 40° C. • Sample cooler: 25° C. • Mobile phase delivery: The mixing ratio of mobile phase A and mobile phase B was varied as shown in Table 14 for linear concentration gradient control.

[2] = Stability test 1: survival rate of peptide in phosphate buffer (pH 7.0) after storage, HPLC; type: physicochemical; conditions: 100 μM peptide, phosphate buffer pH 7.0, 40° C.; for survival rate after correction for water, 40° C. 2 week: 2 weeks (Table 6); for survival rate after correction for water, 40° C. 8 week: 8 weeks (Table 6)
Protocol: The 1.0 mM peptide solutions were then diluted with phosphate buffer to 100 μM. […] The prepared peptide solutions were incubated for one month or 2 months in a 40° C. thermostatic bath to obtain stored samples.
Using the total weight of the aqueous peptide solution and storage vessel as the specimen weight, measurements were recorded as the specimen weights before storage and the specimen weights after storage under different storage conditions. The empty weight of the storage vessel was also measured, and the moisture permeability was determined by the following formula.
After stirring the standard sample and the stored samples with a vortex mixer, each peptide solution was transferred to an HPLC vial (Deactivated Qsert vial by Waters Co.). Reverse-phase HPLC (HPLC system: Prominence by Shimadzu Corp.) was conducted under the conditions shown in Table 3 below for analysis of the peptide solutions, and chromatograms were obtained.
The peak area value for the peptide in the chromatogram was calculated, and the survival rate (survival rate before correction for water) was calculated using formula (2). The survival rate after correction for water was also calculated from the survival rate before correction for water using formula (3) to take into account the permeability of the container.
Peptide solutions prepared by the same method as [Measuring sample preparation 1] for the peptides synthesized in Example 2 (peptides 13 to 16) were incubated for 2 weeks and 8 weeks in a thermostatic bath at 40° C. to obtain stored samples.
Peptide solutions prepared by the same method as [Measuring sample preparation 1] for the peptides synthesized in Example 2 (peptides 17 to 21) were incubated for 4 weeks in a thermostatic bath at 40° C. to obtain stored samples.
A peptide solution prepared by the same method as [Measuring sample preparation 1] for peptide 22 synthesized in Example 2 was incubated for 1 week and 4 weeks in a thermostatic bath at 40° C. to obtain stored samples.

Row | Compound | survival rate after correction for water, 40° C. 2 week [2] [%] | survival rate after correction for water, 40° C. 8 week [2] [%] | further results
1 | HSTzGIFTTzSYSRYRKQNIAVKKYLAAVL [Reference Example 3] |  |  | survival rate after correction for water, 60° C. 1 week preservation [1]: 91.3%; survival rate after correction for water, 60° C. 2 weeks preservation [1]: 82.4%
2 | HSTzGIFTTzSYSRYRKQNIAVKKYLAAVL [Reference Example 5] (HSXGIFTXSYSRYRKQXAVKKYLAAVL; N-acetyl; C-terminal amide; Tz residues; modified PACAP peptide; MOD_RES (1)..(1) …ON; MUTAGEN (3)..(3) Xaa is amino acid wherein carboxy group of asparatic acid is substituted with tetrazole; MUTAGEN (8)..(8) Xaa is amino acid wherein carboxy group of asparatic acid is substituted with tetrazole; MUTAGEN (17)..(17) Xaa is Nle) |  |  | survival rate after correction for water, 60° C. 1 week preservation [1]: 98.1%; survival rate after correction for water, 60° C. 2 weeks preservation [1]: 92.9%
3 | CCCC[C@H](NC(=O)[C@H](CCC(N)=O)NC(=O)[C@H](CCCCN)NC(=O)[C@H](CCCNC(=N)N)NC(=O)[C@H](Cc1ccc(O)cc1)NC(=O)[C@H](CCCNC(=N)N)NC(=O)[C@H](CO)NC(=O)[C@H](Cc1ccc(O)cc1)NC(=O)[C@H](CO)NC(=O)[C@@H](Cc1nnn[nH]1)NC(=O)[C@@H](NC(=O)[C@H](Cc1ccccc1)NC(=O)[C@@H](NC(=O)CNC(=O)[C@@H](Cc1nnn[nH]1)NC(=O)[C@H](CO)NC(=O)[C@@H](N)Cc1c[nH]cn1)[C@@H](C)CC)[C@@H](C)O)C(=O)N[C@@H](C)C(=O)N[C@H](C(=O)N[C@@H](CCCCN)C(=O)N[C@@H](CCCCN)C(=O)N[C@@H](Cc1ccc(O)cc1)C(=O)N[C@@H](CC(C)C)C(=O)N[C@@H](C)C(=O)N[C@@H](C)C(=O)N[C@H](C(=O)N[C@@H](CC(C)C)C(N)=O)C(C)C)C(C)C [Peptide 13, HSTz(D)GI FTTz(D)SY SRYRK QNIAVK KYLAA VL] (H-HS[X1]GIFT[X1]SYSRYRKQ[Nle]AVKKYLAAVL-NH2) | 96.2 | 84.6 | 
4 | CCCC[C@H](NC(=O)[C@H](CCC(N)=O)NC(=O)[C@H](CCCCN)NC(=O)[C@H](CCCNC(=N)N)NC(=O)[C@H](Cc1ccc(O)cc1)NC(=O)[C@H](CCCNC(=N)N)NC(=O)[C@H](CO)NC(=O)[C@H](Cc1ccc(O)cc1)NC(=O)[C@H](CO)NC(=O)[C@H](Cc1nnn[nH]1)NC(=O)[C@@H](NC(=O)[C@H](Cc1ccccc1)NC(=O)[C@@H](NC(=O)CNC(=O)[C@H](Cc1nnn[nH]1)NC(=O)[C@H](CO)NC(=O)[C@H](Cc1c[nH]cn1)NC(=O)CC(C)C)[C@@H](C)CC)[C@@H](C)O)C(=O)N[C@@H](C)C(=O)N[C@H](C(=O)N[C@@H](CCCCN)C(=O)N[C@@H](CCCCN)C(=O)N[C@@H](Cc1ccc(O)cc1)C(=O)N[C@@H](CC(C)C)C(=O)N[C@@H](C)C(=O)N[C@@H](C)C(=O)N[C@H](C(=O)N[C@@H](CC(C)C)C(N)=O)C(C)C)C(C)C [Peptide 21] (Isovaleryl-HS[Ala(1H-tetrazol-5-yl)]GIFT[Ala(1H-tetrazol-5-yl)]SYSRYRKQ[Nle]AVKKYLAAVL-NH2) |  |  | survival rate after correction for water, 40° C. 4 week ([2]; 4 weeks (Table 8)): 69.0%
5 | CCCC[C@H](NC(=O)[C@H](CCC(N)=O)NC(=O)[C@H](CCCCN)NC(=O)[C@H](CCCNC(=N)N)NC(=O)[C@H](Cc1ccc(O)cc1)NC(=O)[C@H](CCCNC(=N)N)NC(=O)[C@H](CO)NC(=O)[C@H](Cc1ccc(O)cc1)NC(=O)[C@H](CO)NC(=O)[C@H](CCc1nnn[nH]1)NC(=O)[C@@H](NC(=O)[C@H](Cc1ccccc1)NC(=O)[C@@H](NC(=O)CNC(=O)[C@H](Cc1nnn[nH]1)NC(=O)[C@H](CO)NC(=O)[C@@H](N)Cc1c[nH]cn1)[C@@H](C)CC)[C@@H](C)O)C(=O)N[C@@H](C)C(=O)N[C@H](C(=O)N[C@@H](CCCCN)C(=O)N[C@@H](CCCCN)C(=O)N[C@@H](Cc1ccc(O)cc1)C(=O)N[C@@H](CC(C)C)C(=O)N[C@@H](C)C(=O)N[C@@H](C)C(=O)N[C@H](C(=O)N[C@@H](CC(C)C)C(N)=O)C(C)C)C(C)C [Peptide 16, HSTzGI FTegTzSY SRYRK QNIAVK KYLAA VL] (H-HS[Ala(1H-tetrazol-5-yl)]GIFT[X3]SYSRYRKQ[Nle]AVKKYLAAVL-NH2) | 94.4 | 80.3 | 
6 | CCCC[C@H](NC(=O)[C@H](CCC(N)=O)NC(=O)[C@H](CCCCN)NC(=O)[C@H](CCCNC(=N)N)NC(=O)[C@H](Cc1ccc(O)cc1)NC(=O)[C@H](CCCNC(=N)N)NC(=O)[C@H](CO)NC(=O)[C@H](Cc1ccc(O)cc1)NC(=O)[C@H](CO)NC(=O)[C@@H](Cc1nnn[nH]1)NC(=O)[C@@H](NC(=O)[C@H](Cc1ccccc1)NC(=O)[C@@H](NC(=O)CNC(=O)[C@H](Cc1nnn[nH]1)NC(=O)[C@H](CO)NC(=O)[C@@H](N)Cc1c[nH]cn1)[C@@H](C)CC)[C@@H](C)O)C(=O)N[C@@H](C)C(=O)N[C@H](C(=O)N[C@@H](CCCCN)C(=O)N[C@@H](CCCCN)C(=O)N[C@@H](Cc1ccc(O)cc1)C(=O)N[C@@H](CC(C)C)C(=O)N[C@@H](C)C(=O)N[C@@H](C)C(=O)N[C@H](C(=O)N[C@@H](CC(C)C)C(N)=O)C(C)C)C(C)C [Peptide 14, HSTzGI FTTz(D)SY SRYRK QNIAVK KYLAA VL] (H-HS[Ala(1H-tetrazol-5-yl)]GIFT[X1]SYSRYRKQ[Nle]AVKKYLAAVL-NH2) | 96.3 | 84.5 | 
7 | CCCC[C@H](NC(=O)[C@H](CCC(N)=O)NC(=O)[C@H](CCCCN)NC(=O)[C@H](CCCNC(=N)N)NC(=O)[C@H](Cc1ccc(O)cc1)NC(=O)[C@H](CCCNC(=N)N)NC(=O)[C@H](CO)NC(=O)[C@H](Cc1ccc(O)cc1)NC(=O)[C@H](CO)NC(=O)[C@H](Cc1nnn[nH]1)NC(=O)[C@@H](NC(=O)[C@H](Cc1ccccc1)NC(=O)[C@@H](NC(=O)CNC(=O)[C@@H](Cc1nnn[nH]1)NC(=O)[C@H](CO)NC(=O)[C@@H](N)Cc1c[nH]cn1)[C@@H](C)CC)[C@@H](C)O)C(=O)N[C@@H](C)C(=O)N[C@H](C(=O)N[C@@H](CCCCN)C(=O)N[C@@H](CCCCN)C(=O)N[C@@H](Cc1ccc(O)cc1)C(=O)N[C@@H](CC(C)C)C(=O)N[C@@H](C)C(=O)N[C@@H](C)C(=O)N[C@H](C(=O)N[C@@H](CC(C)C)C(N)=O)C(C)C)C(C)C [Peptide 15, HSTz(D)GI FTTzSY SRYRK QNIAVK KYLAA VL] (H-HS[X1]GIFT[Ala(1H-tetrazol-5-yl)]SYSRYRKQ[Nle]AVKKYLAAVL-NH2) | 95.6 | 81.3 | 
8 | CCCC[C@H](NC(=O)[C@H](CCC(N)=O)NC(=O)[C@H](CCCCN)NC(=O)[C@H](CCCNC(=N)N)NC(=O)[C@H](Cc1ccc(O)cc1)NC(=O)[C@H](CCCNC(=N)N)NC(=O)[C@H](CO)NC(=O)[C@H](Cc1ccc(O)cc1)NC(=O)[C@H](CO)NC(=O)[C@H](Cc1nnn[nH]1)NC(=O)[C@@H](NC(=O)[C@H](Cc1ccccc1)NC(=O)[C@@H](NC(=O)CNC(=O)[C@H](Cc1nnn[nH]1)NC(=O)[C@H](CO)NC(=O)[C@H](Cc1c[nH]cn1)NC(=O)CC)[C@@H](C)CC)[C@@H](C)O)C(=O)N[C@@H](C)C(=O)N[C@H](C(=O)N[C@@H](CCCCN)C(=O)N[C@@H](CCCCN)C(=O)N[C@@H](Cc1ccc(O)cc1)C(=O)N[C@@H](CC(C)C)C(=O)N[C@@H](C)C(=O)N[C@@H](C)C(=O)N[C@H](C(=O)N[C@@H](CC(C)C)C(N)=O)C(C)C)C(C)C [Peptide 17, HSTzGI FTTzSY SRYRK QNIAVK KYLAA VL] (Propionyl-HS[Ala(1H-tetrazol-5-yl)]GIFT[Ala(1H-tetrazol-5-yl)]SYSRYRKQ[Nle]AVKKYLAAVL-NH2) |  |  | survival rate after correction for water, 40° C. 4 week ([2]; 4 weeks (Table 8)): 59.2%
9 | CCCC[C@H](NC(=O)[C@H](CCC(N)=O)NC(=O)[C@H](CCCCN)NC(=O)[C@H](CCCNC(=N)N)NC(=O)[C@H](Cc1ccc(O)cc1)NC(=O)[C@H](CCCNC(=N)N)NC(=O)[C@H](CO)NC(=O)[C@H](Cc1ccc(O)cc1)NC(=O)[C@H](CO)NC(=O)[C@H](Cc1noc(=O)[nH]1)NC(=O)[C@@H](NC(=O)[C@H](Cc1ccccc1)NC(=O)[C@@H](NC(=O)CNC(=O)[C@H](Cc1noc(=O)[nH]1)NC(=O)[C@H](CO)NC(=O)[C@H](Cc1c[nH]cn1)NC(C)=O)[C@@H](C)CC)[C@@H](C)O)C(=O)N[C@@H](C)C(=O)N[C@H](C(=O)N[C@@H](CCCCN)C(=O)N[C@@H](CCCCN)C(=O)N[C@@H](Cc1ccc(O)cc1)C(=O)N[C@@H](CC(C)C)C(=O)N[C@@H](C)C(=O)N[C@@H](C)C(=O)N[C@H](C(=O)N[C@@H](CC(C)C)C(N)=O)C(C)C)C(C)C [Peptide 22, HS(50xa)GI FT(50xa)SY SRYRK QNIAVK KYLAA VL] (Ac-HS[X2]GIFT[X2]SYSRYRKQ[Nle]AVKKYLAAVL-NH2) |  |  | survival rate after correction for water, 40° C. 1 week ([2]; 1 week (Table 10)): 89.7%; survival rate after correction for water, 40° C. 4 week ([2]; 4 weeks (Table 10)): 79.7%
